The values below come from patent US20240108645A1, “SENESCENCE AND SENESCENCE ASSOCIATED SECRETORY PHENOTYPE” (Metro Biotech NSW Pty Ltd, priority 2013, published 2024).

“Also recorded” adds a separate entry of the source.

Experiment [1] has as its system C2C12 myoblasts. As to the kind of experiment: SA-β-Gal staining of C2C12 myoblasts incubated with various agents. The experiment is classed as cell-based. As to the method: The ability of NAD^+ agonists to reduce senescence associated with various agents was tested by inclubating C2C12 myoblasts with various agents in the presence or absence of NMN or apigenin, and the cells subsequent stained as mentioned above for SA-β-Gal activity. The following agents were tested: [table]

For experiment [2], the system named is senescence associated secretory proteins and cell cycle markers (mRNA). As to the kind of experiment: Quantitative RTPCR of senescence marker mRNA in epidymal adipose tissue. Format: in vivo, C57BL6 mice. As to conditions: chow or high fat feed supplemented with 500 mg/kg apigenin. As to the method:
C57BL6 mice were fed chow, chow supplemented with 500 mg/kg apigenin, high fat feed or high fat feed supplemented with 500 mg/kg apigenin for 6 months. At 6 months, mRNA expression levels of senescence associated secretory proteins was determined in epidymal adipose tissue using quantitative RTPCR. At 12 months, mRNA expression levels of cell cycle markers was determined in epidymal adipose tissue using quantitative RTPCR.

Experiment [3] relates to 3T3-L1 adipocytes. As to the kind of experiment: SA-β-gal chromogenic staining of dexamethasone treated 3T3-L1 adipocytes. Format: cell-based. As to conditions: 5 days; dexamethasone 1, 0.5, 0.1 or 0.01 mg/ml; 1 mM NMN, 25 mM apigenin. As to the method:
To further investigate the effects of NAD^+ agonists on dexamethasone induced senescence, 3T3-L1 adipocytes were treated for 5 days with ethanol (control), or 1 mg/ml, 0.5 mg/ml, 0.1 mg/ml or 0.01 mg/ml of dexamethasone in combination with either DMSA, 1 mM NMN, 25 mM apigenin, or 1 mM NMN and 25 mM apigenin and subjected to senescence associated beta-galactosidase staining according to the chromogenic protocol of Debacq-Chainiaux F et al Nature Protocols 2009.

A short description of experiment [4]: Body weight after whole body γ-irradiation. The experiment is classed as in vivo, female C57BL6 mice. As to conditions: 500cGy whole body γ-irradiation; apigenin 500 mg/kg feed; 20 days post-irradiation. As to the method:
In order to assess the affects of an NAD^+ agonist on the effects of radiation, female C57BL6 (3-4 months old) were exposed to a single dose (500cGy) of whole body γ-irradiation or no irradiation (control). Mice were then maintained on chow diet with or without the addition of the NAD^+ raising compound apigenin to diet (500 mg/kg feed). The weight of the mice was determined at various time points for 20 days post-irradiation.

Experiment [5] is described as follows: Body weight after doxorubicin. Format: in vivo, male C57BL6 mice. Conditions: doxorubicin 10 mg/kg i.p. + apigenin 500 mg/kg of diet from 8 days before. As to the method:
Vehicle control: 10% DMSO in PBS administered intraperitoneally; • 2. Apigenin: administered in diet at 500 mg/kg of diet, in addition to vehicle control administered i.p.; • 3. […] Apigenin administered in diet of 500 mg/kg of diet, and doxorubicin administered at 10 mg/kg body weight i.p. Apigenin was administered 8 days prior to administration of a single dose of doxorubicin. Body weight was assessed during the course of the experiment as a read-out of general health and malaise, the results of which are shown in FIG. 11.

The test system of experiment [6] is 3T3-L1 adipocytes. As to the kind of experiment: Intracellular lipid content (oil red o) of 3T3-L1 adipocytes treated with antiretroviral agents. As to conditions: apigenin 25 μM; cells treated 24 hr with 30 μM AZT, Efavirenz, Lopinavir, Ritonavir. On the procedure:
The ability of NAD^+ agonists to reduce or prevent lipodystrophy associated with anti-retroviral compounds was assessed. The ability of NMN to prevent or reduce lipodystrophy was tested by determining the lipid content of 3T3-L1 adipocytes treated with a vehicle, or the antiretroviral agent stavudine, either alone or in combination with NMN.
3T3-L1 adipocytes were treated for 24 hr with the HIV antiretroviral compound stavudine (10 nM) in the presence or absence of NMN (1 mM). Intracellular lipid content was assessed using oil red o staining, which was quantified by reading absorbance at 544 nm. Error bars: SD.
In order to further test the ability of NAD^+ agonists to reduce lipodystrophy associated with antiretroviral agents, 3T3-L1 adipocytes were treated for 24 hr with various antiretroviral compounds (30 μM) in the presence or absence of NMN (1 mM) or apigenin (25 μM). Intracellular lipid content was assessed using oil red o staining, which was quantified by reading absorbance at 544 nm.

Experiment [7] relates to senescence associated β-galactosidase. The experiment in a line: Senescence associated β-galactosidase staining of epididymal adipose tissue whole mounts. Format: in vivo, C57BL6 mice. As to the method: 18 month old C57BL6 mice were treated with or without […] intraperitoneal apigenin for 7 days. Epidydimal adipose tissue whole mounts were obtained from the mice and stained for expression of senescence associated β-galactosidase according to the chromogenic protocol of Debacq-Chainiaux F et al., Protocols to Detect Senescence-associated beta-galactosidase (SA-betagal) activity, a biomarker of senescent cells in culture and in vivo, Nature Protocols 2009; 4(12): 1798-1806. Cells that have undergone cellular senescence express β-galactosidase and stain blue (which can be seen as a darker grey in FIG. 1A).

Experiment [8] concerns C2C12 myoblasts. As to the kind of experiment: SA-β-Gal activity in C2C12 myoblasts by flow cytometry with C12FDG. Format: cell-based. On the procedure: To determine the ability of NAD^+ agonists to prevent or reduce senescence associated with treatment with corticoids, C2C12 myoblasts were assayed for SA-β-Gal activity following contact with vehicle, NMN, apigenin, dexamethasone, dexamethasone and NMN, and dexamethasone and apigenin. SA-β-Gal activity was determined using the fluorogenic substrate, C12FDG, by flow cytometry (protocol of Debacq-Chainiaux et al. Nature Protocols 2009). FIG. 7A: […] FIGS. 7B and 7C: […] SA-β-Gal activity was decreased with NMN and/or apigenin. All data are presented as the mean value. * p<0.05, **** p<0.0001, using two-way ANOVA multiple comparisons test.
(In general: In flow cytometry, cells or beads pass a laser one at a time.)

A further experiment relates to p16^INK4A. As to the kind of experiment: Doxorubicin-induced senescence in p16^LUC mice, bioluminescence/CT imaging. The experiment is classed as in vivo. As to conditions: doxorubicin 1 mg/kg i.p. + apigenin 500 mg/kg of food from 4 days before; vs doxorubicin alone. As to the method:
Vehicle control: 10% DMSO in PBS administered intraperitoneally; • 2. Apigenin: administered in diet at 500 mg/kg of food in addition to vehicle control administered i.p.; • 3. […] Apigenin administered in chow diet at 500 mg/kg of food, and doxorubicin administered at 1 mg/kg body weight i.p. Apigenin was administered 4 days prior to administration of doxorubicin. The animals were subjected to bioluminescence/CT imaging (Spectrum-CT instrument, PerkinElmer) as a readout for senescence 24 hours after treatment was completed. Areas of luminescence are shown as lightened areas in FIG. 5 and are indicated by an arrow.

For the next experiment, the target named is T1, CD38 (Homo sapiens, UniProt P28907).
T1 sequence (P28907 1-300): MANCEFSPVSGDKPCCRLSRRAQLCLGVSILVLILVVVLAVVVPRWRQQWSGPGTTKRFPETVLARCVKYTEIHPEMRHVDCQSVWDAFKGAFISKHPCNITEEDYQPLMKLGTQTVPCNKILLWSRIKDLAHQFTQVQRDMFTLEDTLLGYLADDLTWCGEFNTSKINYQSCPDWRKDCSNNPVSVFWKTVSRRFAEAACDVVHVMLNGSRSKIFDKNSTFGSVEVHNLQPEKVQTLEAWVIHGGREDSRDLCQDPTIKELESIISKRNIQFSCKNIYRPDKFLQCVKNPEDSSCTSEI
Conditions: in vitro; Esande et al. (2013) Diabetes; cited from earlier work.

The target of a further experiment is NAMPT (Homo sapiens, UniProt P43490). As to conditions: in vitro; Wang et al. (2014) Cell; cited from earlier work.
NAMPT, sequence (P43490 whole entry, species assumed): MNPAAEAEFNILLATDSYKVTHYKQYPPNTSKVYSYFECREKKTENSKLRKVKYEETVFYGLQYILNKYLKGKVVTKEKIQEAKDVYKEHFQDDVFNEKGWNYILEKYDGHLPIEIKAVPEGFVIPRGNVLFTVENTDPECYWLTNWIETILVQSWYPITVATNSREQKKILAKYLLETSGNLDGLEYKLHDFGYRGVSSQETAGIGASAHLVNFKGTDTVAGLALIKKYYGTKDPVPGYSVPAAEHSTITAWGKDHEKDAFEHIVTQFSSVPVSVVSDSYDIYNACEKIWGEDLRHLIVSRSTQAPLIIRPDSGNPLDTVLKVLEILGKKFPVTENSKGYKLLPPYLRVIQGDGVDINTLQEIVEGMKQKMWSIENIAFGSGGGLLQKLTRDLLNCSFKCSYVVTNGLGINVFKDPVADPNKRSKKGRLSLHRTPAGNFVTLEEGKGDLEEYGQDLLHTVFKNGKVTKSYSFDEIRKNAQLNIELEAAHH

For `O=c1cc(-c2ccc(O)cc2)oc2cc(O)cc(O)c12` [apigenin, 5,7-dihydroxy-2-(4-hydroxyphenyl)-4H-1-benzopyran-4-one], the “extent of senescence (proportion of cells stained blue, SA-β-Gal activity)” value in the experiment with C2C12 myoblasts [1] (agents of the table of b212 with vs without apigenin or NMN) is “reduce the extent of senescence induced by the agents tested”. Besides, the “extent to which the cells undergo senescence” value in the experiment with C2C12 myoblasts [1] (co-administration with AZT, 3TC, zalcitabine, efavirenze, lopinavir, ritonavir, nevirapine, tipranavir, tenofovir, invirase vs agent alone) is given as “reduces the extent to which the cells undergo senescence”; with C2C12 myoblasts [1] (co-administration with PPARγ agonist rosiglitazone vs rosiglitazone alone), “reduces the extent to which the cells undergo senescence”; in the experiment on C2C12 myoblasts [1] (co-administration with antiprotozoal agent quinacrine vs quinacrine alone), “reduces the extent to which the cells undergo senescence”; in the experiment on C2C12 myoblasts [1] (co-administration with each of the chemotherapeutic agents listed in b109 vs agent alone) it was “reduces the extent to which the cells undergo senescence”; with C2C12 myoblasts [1] (co-administration with xanthine oxidase inhibitor allopurinol vs allopurinol alone), “reduces the extent to which the cells undergo senescence”; in the experiment on C2C12 myoblasts [1] (co-administration with zolendronate vs zolendronate alone), “reduces the extent to which the cells undergo senescence”. The “mRNA expression of senescence associated secretory proteins (FIG. 2)” value in experiment [2] (6 months) is on record as “significant reduction in expression of senescence markers”. Also, in experiment [2] (12 months), the “mRNA expression of cell cycle markers (FIG. 3)” value is recorded as “significant reduction in expression of senescence markers”. Moreover, in the experiment on 3T3-L1 adipocytes [3], the “SA-β-gal staining (blue cells), dexamethasone induced senescence” value is listed as “reduce or prevent senescence induced by dexamethasone”. Also, the “body weight after irradiation” value in [4] is listed as “prevented this weight loss”. Also, the body weight result in experiment [5] is recorded as “rescue in body weight to a degree similar to non-doxorubicin treated animals”. In addition, the “lipodystrophy (intracellular lipid content, oil red o)” value in the experiment with 3T3-L1 adipocytes [6] is reported as “reduced lipodystrophy”. Further, the “SA-β-gal staining of adipose tissue (FIG. 1B)” value in experiment [7] (3 and 18 month old mice fed chow or chow supplemented with apigenin) was “little or no staining”. The “senescence associated β-galactosidase staining of adipose tissue (FIG. 1A)” value in experiment [7] (18 month old mice, 100 mg/day intraperitoneal apigenin for 7 days / chow supplemented daily with 100 mg/kg apigenin, vs chow fed control, 100 mg/kg) was “less compared to chow fed mice; also recorded: significantly less senescence-associated β-galactosidase expression”. The “SA-β-Gal activity (FIG. 7B)” value in the experiment with C2C12 myoblasts [8] (72 hours, dexamethasone sodium phosphate 250 nM or PBS, NMN 1 mM or apigenin 25 uM) is on record as “decreased”. In addition, the “SA-β-Gal activity (FIG. 7C)” value in the experiment with C2C12 myoblasts [8] (96 hours, dexamethasone sodium phosphate 250 nM or PBS, NMN 1 mM or apigenin 25 uM) was “decreased”. The “percentage of cells which exhibited SA-β-Gal activity following treatment with dexamethasone” value in the experiment with C2C12 myoblasts [8] (summary of FIGS. 7A-7C) is listed as “reduced the percentage of cells which exhibited SA-β-Gal activity”. Further, the “p16^INK4A induction (bioluminescence)” value with p16^INK4A was “little or no signs of p16^INK4A induction”. In addition, the “inhibition of CD38 activity” value on CD38 is listed as “inhibitors of CD38 activity in vitro”.
In the case of `OC(CNc1ccccc1)Cn1c2ccc(Br)cc2c2cc(Br)ccc21` (stereo not drawn) [P7C3], on NAMPT, the “activity of NAMPT” value is recorded as “enhances activity of NAMPT in vitro”.
